The test system of data set [1] is intracellular ROS in MCF-7 cells. The experiment in a line: ROS assay (carboxy-DCF-DA), MCF-7. It is filed as cell-based, human. The following applies: for intracellular ROS levels: ethanol 50 mM or PhIP 100 µM alone, Fig. 6c. How it is done: STAT3 inhibitor was dissolved in DMSO.
Production of reactive oxygen species (ROS) was measured using 2′,7′–dichlorofluorescein diacetate method. Carboxy-2′,7′-dichlorofluorescein diacetate (carboxy-DCF-DA) is taken up by viable cells and cleaved by endogenous esterases to the nonfluorescent derivative, reduced carboxy-dichlorofluorescein (carboxy-DCFH). This product is retained in the cytosol where it can be oxidized by intracellular ROS to the highly fluorescent product, oxidised carboxy-dichlorofluorescein (carboxy-DCF). The intensity of fluorescence is proportional to intracellular ROS levels. MCF-7 cells (2 × 10^4/well) were seeded into 24-well plates in 1% FBS and allowed to attach overnight. Cells were treated with PhIP for 24 h and then treated with Carboxy-DCFDA (20 µL, 30 µM) in media containing 1% FBS (1 ml) and incubated for 30 min at 37 °C, washed with PBS and new media (1% FBS) was added. Fluorescent measurements (excitation at 485 nm and emission at 520 nm) were then taken from 10 min to 24 h using a fluorescence plate reader (BMG POLARstar Galaxy Labtech, Ortenberg, Germany). The concentration of DMSO (0.2%) was identical in all treatments and had no effect on ROS production at this concentration.

For data set [2], the system named is MCF-7 cells. Briefly: Micronucleus (MN) assay, MCF-7. How it is done: (§1) Cells were cultured routinely in 75-cm^2 flasks in a humidified incubator at 37 °C, 5% CO2.
(§2) Briefly, cells were seeded at a density of 5 × 10^4 cells per well in 24-well plate. Cells were treated with PhIP or ethanol as detailed previously. Following treatment with chemicals and harvesting (48 h), cells were trypsinised, the cell concentration adjusted to 2 × 10^5 and re-suspended in serum-free R0 (serum-free media) with 2% pluronic acid medium (GIBCO, Life technologies) and cytotoxicity was determined by counting cells in a haemocytometer with TrypanBlue exclusion (GIBCO, Life technologies). For the MN assay, cells were spread on a microscope slide using a cytospin. Cells at a density of 2 × 10^4 cells per slide were fixed with 100% methanol and stained for 60 s with acridine orange (0.1 mg ml^−1 dissolved in PBS, Sigma-Aldrich). Frequency of MN was scored in 2000 cells per sample and three biological replicates were performed per treatment.

In data set [3] the test system is MCF-7 cells. Briefly: Cytotoxicity (cell counting, TrypanBlue exclusion), MCF-7. How it is done: as §1, §2
The test system of data set [4] is intracellular ROS in MCF-7 cells. Set-up: method as in Li et al. [2013]; Martinez-Outschoorn et al. [2010]. Particulars: NAC 10 mM, ref Li et al. [2013], Martinez-Outschoorn et al. [2010]; cited from earlier work.
Data set [5] deals with MDA-MB-231 cells. Briefly: Cytotoxicity (cell counting, TrypanBlue exclusion), MDA-MB-231. How it is done:
as §1, §2

Data set [6] has as its system CYP2E1 mRNA expression. Briefly: RT-qPCR CYP2E1 mRNA, MCF-7. How it is done: as §1
For STAT3 inhibition, cells were co-treated for 24 h with PhIP and 25 µM STAT3 inhibitor (STAT3 inhibitor VIII 5, 15 diphenylporphyrin, Millipore, Feltham, UK). STAT3 inhibitor was dissolved in DMSO. For ethanol treatment, media was supplemented with different concentrations of ethanol (10 mM-100 mM, Sigma-Aldrich) and was added to the cells. In some experiments, N-acetyl-cysteine (NAC) (10 mM, Sigma-Aldrich) diluted in phosphate-buffered saline (PBS) was added to incubations.
(§3) Following treatment, cells were lysed using TRIZOL reagent and chloroform (0.2 ml) was added in each sample and centrifuged 12,000xg (10 min 2–8 °C). The upper aqueous phase was transferred to a fresh tube and 5 µg of RNase-free glycogen (as carrier to aqueous phase) and 0.5 ml of isopropyl alcohol was added to precipitate RNA and incubated (37 °C, 10 min). Following incubation, lysates were centrifuged at 12,000xg (10 min 2–8 °C). The gel-like pellet was washed with ethanol and re-dissolved in RNase-free water with heating (55–60 °C). Extracted RNA was quantified by UV spectroscopy (UV–VIS Nano-spectrophotometer, Implen, Essex, UK) and purity was assessed from 260/280 nm and 260/230 nm ratios. Reverse transcription (RT) of extracted RNA (100–500 ng) was completed according to manufacturer’s protocol (Invitrogen) and qPCR was performed using predesigned Taqman gene expression assays and FAST PCR master mix (Taqman, Applied Biosystems, Life technologies) using a StepOnePlus fast real-time PCR system (Applied Biosystems, Life technologies). Target gene expression was normalized to GAPDH and quantified using the delta-Ct method (Livak and Schmittgen [2001]).
For orientation: Real-time PCR tracks product formation cycle by cycle.

Data set [7] deals with CYP1A2 mRNA expression. Briefly: RT-qPCR CYP1A2 mRNA, MCF-7. The following applies: 24 h, E2 1 µM, Fig. 2a. As to the method:
as §1, §3

Data set [8] deals with CYP1A1. The experiment in a line: RT-qPCR CYP1A1 mRNA, MCF-7. Particulars: data not shown. Type of data set: cell-based, human. How it is done:
as §1, §3

In data set [9] the test system is CYP1B1 mRNA expression. The experiment in a line: RT-qPCR CYP1B1 mRNA, MDA-MB-231. Particulars: 24 h, E2 1 µM, Fig. 2d. As to the method: as §1, §3
Data set [10] deals with CYP1A1. Briefly: RT-qPCR CYP1A1 mRNA, MDA-MB-231. Particulars: data not shown. Type of data set: cell-based, human. As to the method: as §1, §3
The subject of another data set is miR378 expression. Briefly: qPCR miR378, MCF-7. Type of data set: cell-based, human. The following applies: 24 h PhIP treatment, Fig. 3b. As to the method: as §1, §3
Data set [11] has as its system CYP1A2 mRNA expression. Briefly: RT-qPCR CYP1A2 mRNA, MDA-MB-231. Particulars: 24 h, E2 1 µM, Fig. 2c. How it is done:
as §1, §3

The subject of a further data set is JAK2 mRNA expression. The experiment in a line: qPCR JAK2 mRNA, MCF-7. It is filed as cell-based, human. Particulars: PhIP-treated, Fig. 3b. As to the method:
as §1, §3

A further data set concerns STAT3 mRNA expression. The experiment in a line: qPCR STAT3 mRNA, MCF-7. Type of data set: cell-based, human. Particulars: 24 h PhIP treatment, Fig. 3b. How it is done:
as §1, §3

Data set [12] has as its system MDA-MB-231 cells. Briefly: Micronucleus (MN) assay, MDA-MB-231. As to the method: as §1, §2
Data set [13] has as its system CYP2E1 mRNA expression. The experiment in a line: RT-qPCR CYP2E1 mRNA, MDA-MB-231. The following applies: PhIP treatment, Fig. 3a. It is filed as cell-based, human. How it is done: as §1, §3
Data set [14] concerns CYP1B1 mRNA expression. The experiment in a line: RT-qPCR CYP1B1 mRNA, MCF-7. As to the method: as §1, §3
Setting [15] is: PhIP 100 nM, three independent cultures.

As for `CC(=O)N[C@@H](CS)C(=O)O` [NAC, N-acetyl-cysteine, reference compound], the “effect of NAC on ethanol-induced ROS production” value in data set [1] (ethanol 50 mM plus NAC 10 mM, Fig. 7c) is “clear decrease”. Moreover, the “effect of NAC on genotoxicity of etoposide” value in the data set with MCF-7 cells [2] (NAC 10 mM, Fig. 7e) is “little effect”. In addition, the “effect of NAC on genotoxicity of PhIP plus ethanol” value in the data set on MCF-7 cells [2] (NAC 10 mM, p = 0.01, Fig. 7e) is recorded as “decreased the genotoxicity of PhIP plus ethanol significantly”. The “effect of NAC on cell survival” value in the data set on MCF-7 cells [3] (ethanol 50 mM and PhIP 100 µM with NAC 10 mM, Fig. 7d) is listed as “did not affect”. In data set [4], the “accumulation of ROS” value is on record as “abolish”.
On to `Cn1c(N)nc2ncc(-c3ccccc3)cc21` [PhIP, 2-amino-1-methyl-6-phenylimidazo[4,5-b]pyridine], for which the “change in cell survival following treatment” value in the data set with MDA-MB-231 cells [5] (Fig. 1b) and in the data set on MCF-7 cells [3] (Fig. 1a) was “No significant change” throughout. Further, the “Cytotoxicity (percent survival ± SD)” value in the data set on MDA-MB-231 cells [5] (PhIP 100 nM) is 87.2% ± 0.9; in the data set on MDA-MB-231 cells [5] (PhIP 1 µM) it was 88.1% ± 0.9; with MDA-MB-231 cells [5] (PhIP 10 µM), 90.4% ± 4.3; in the data set with MDA-MB-231 cells [5] (PhIP 100 µM), 87.7% ± 1.5; in the data set with MCF-7 cells [3] (setting [15]), 86% ± 2.4; in the data set on MCF-7 cells [3] (PhIP 1 µM), 85.6% ± 2.4. The “Cytotoxicity (percent survival ± SD)” value in the data set with MCF-7 cells [3] (PhIP 10 µM) is listed as 85.8% ± 2.6; in the data set with MCF-7 cells [3] (PhIP 100 µM), 82.7% ± 1.7. Besides, the “CYP2E1 mRNA expression” value is reported as “induced CYP2E1 mRNA expression in a dose-dependent manner” with CYP2E1 mRNA expression [6] (PhIP treatment, Fig. 3a) and “but not in MDA-MB-231 cells” with CYP2E1 mRNA expression [13]. Moreover, the “CYP1A2 mRNA expression vs vehicle control” value with CYP1A2 mRNA expression [7] and in the data set with CYP1A2 mRNA expression [11] was “can induce” in each case. The CYP1A1 induction result with CYP1A1 [8] and in the data set on CYP1A1 [10] was “failed to induce” each time. Besides, the ROS levels entry in [1] (PhIP 24 h, pronounced over the first 60 min, Fig. 5a) was “dose-dependent increase”. For the same compound, the “intracellular ROS levels” value in data set [1] is on record as “Elevated”. Besides, the “CYP1B1 mRNA expression vs vehicle control” value is reported as “can induce” in the data set with CYP1B1 mRNA expression [9] and “can induce” with CYP1B1 mRNA expression [14] (MCF-7, 24 h, E2 1 µM, Fig. 2b). In addition, the “MN frequency (mean ± SD)” value was 12.8 ± 5.1 MN/1000 cells in the data set with MCF-7 cells [2] (setting [15]); 22.3 ± 2.6 MN/1000 cells with MCF-7 cells [2] (PhIP 1 µM); 29.2 ± 3.4 MN/1000 cells with MCF-7 cells [2] (PhIP 10 µM); 49 ± 3.5 MN/1000 cells in the data set on MCF-7 cells [2] (PhIP 100 µM); 3.2 ± 2.5 MN/1000 cells in the data set with MDA-MB-231 cells [12] (PhIP 100 nM); 4.7 ± 1.8 MN/1000 cells in the data set with MDA-MB-231 cells [12] (PhIP 1 µM). The “MN frequency (mean ± SD)” value worked out at 9 ± 0.9 MN/1000 cells in the data set on MDA-MB-231 cells [12] (PhIP 10 µM) and 13.7 ± 1.3 MN/1000 cells with MDA-MB-231 cells [12] (PhIP 100 µM). In addition, in the data set on miR378 expression, the miR378 expression entry is reported as “no change”. The “JAK2 mRNA expression” value with JAK2 mRNA expression is “dose-dependent increase”. Moreover, the “STAT3 mRNA expression” value in the data set with STAT3 mRNA expression is reported as “dose-dependent upregulation”. For the same compound, the “CYP1B1 induction in MCF-7 compared to MDA-MB-231 cells” value with CYP1B1 mRNA expression [14] (PhIP, Fig. 2) is recorded as “higher”.
For the compound `C1=Cc2nc1cc1ccc([nH]1)c(-c1ccccc1)c1nc(cc3ccc([nH]3)c2-c2ccccc2)C=C1` [STAT3 inhibitor, 5, 15 diphenylporphyrin, reference compound], the “effect of STAT3 inhibitor on CYP2E1 mRNA upregulation by PhIP” value in the data set with CYP2E1 mRNA expression [6] (inhibitor 25 µM co-treated with PhIP 24 h, Fig. 4a) was “completely abolished”. Besides, in data set [1] (Fig. 5b), the “effect of STAT3 inhibitor on H2O2-induced ROS” value is “failed to attenuate”. Further, the “effect of STAT3 inhibitor on ROS production by PhIP” value in data set [1] (PhIP 100 µM 24 h, inhibitor 25 µM, Fig. 5b) is “significantly reduced”.
Turning to `CCO` [ethanol], in the data set with CYP2E1 mRNA expression [6] (Fig. 6a), the “ethanol concentration at which CYP2E1 increase was significant” value lay within 50 to 100 mM. For the same compound, the CYP2E1 expression entry in the data set on CYP2E1 mRNA expression [6] (ethanol 10 to 100 mM, Fig. 6a) is recorded as “dose-dependent increase”. In addition, the “intracellular ROS levels” value in data set [1] is given as “Elevated”. Besides, the “effect of addition of ethanol on genotoxicity of etoposide” value with MCF-7 cells [2] (Fig. 7b) is recorded as “No change”. Also, the MN induction entry in the data set on MCF-7 cells [2] (ethanol 50 mM, 24 h, Fig. 7b) is reported as “did not significantly induce”.

The values above are taken from PMC5882637, “Ethanol potentiates the genotoxicity of the food-derived mammary carcinogen PhIP in human estrogen receptor-positive mammary cells: mechanistic support for lifestyle factors (cooked red meat and ethanol) associated with mammary cancer” (Archives of Toxicology, 2018).
